Assay: Henry solubility constant Hcp at 298.15 K (mol/(m3 Pa))
Conditions: reference: Watanabe (1993)

Row | SMILES | Henry solubility constant Hcp
1 | CCN(CC)C(=O)SCc1ccc(Cl)cc1 [S-(4-chlorobenzyl) diethylthiocarbamate] | 19
2 | CCCCOCN(C(=O)CCl)c1c(CC)cccc1CC [butachlor] | 160
3 | CC(C)OC(=O)Nc1cccc(Cl)c1 [chlorpropham] | 23
4 | CCOP(=S)(OCC)Oc1cc(C)nc(C(C)C)n1 [diazinon] | 11
5 | COP(=S)(OC)Oc1ccc([N+](=O)[O-])c(C)c1 [fenitrothion] | 83
6 | CCC(C)c1ccccc1OC(=O)NC (stereo not given) [fenobucarb] | 150
7 | CC(C)OP(=O)(OC(C)C)SCc1ccccc1 [iprobenphos] | 260
8 | CCOC(=O)CC(SP(=S)(OC)OC)C(=O)OCC (stereo not given) [malathion] | 670
9 | CCCN(CCC)c1c([N+](=O)[O-])cc(C(F)(F)F)cc1[N+](=O)[O-] [trifluralin] | 0.91
10 | CNC(=O)Oc1ccc(C)c(C)c1 [xylylcarb] | 91
